Converted amounts (≈) assume the structure as drawn. The source made the active and inactive calls. The calls are words filed in the database; no cut-off is given here.
Tests used:
L02 = assay: Cytotoxicity against human L02 cells assessed as reduction in cell viability incubated for 72 hrs by MTT assay; assay type: ADME, cell-based; settings: L02, 72 h
HEK293 = assay: Cytotoxicity against human HEK293 cells assessed as reduction in cell viability incubated for 72 hrs by MTT assay; assay type: ADME, cell-based; settings: HEK293, 72 h
THP-1 = assay: Cytotoxicity against human THP-1 cells assessed as reduction in cell viability incubated for 72 hrs by MTT assay; assay type: ADME, cell-based; settings: THP-1, 72 h
[1] = Aqueous solubility of compound at 1 mg; settings: aqueous medium
[2] = target: Tyrosine-protein kinase BTK (Homo sapiens, UniProt Q06187); assay: Inhibition of BTK (unknown origin) by caliper mobility shift assay
Mus musculus = assay: Antiarthritic activity in DBA/1J mouse model of collagen-induced arthritis at 20 mg/kg, po administered for 30 days and measured on day 30; assay type: functional, organism-based; settings: time 30.0 day
[3] = Inhibition of recombinant human PI3K using PIP2 as substrate incubate for 15 mins by LANCE assay

Sequence of Tyrosine-protein kinase BTK (Q06187 whole entry): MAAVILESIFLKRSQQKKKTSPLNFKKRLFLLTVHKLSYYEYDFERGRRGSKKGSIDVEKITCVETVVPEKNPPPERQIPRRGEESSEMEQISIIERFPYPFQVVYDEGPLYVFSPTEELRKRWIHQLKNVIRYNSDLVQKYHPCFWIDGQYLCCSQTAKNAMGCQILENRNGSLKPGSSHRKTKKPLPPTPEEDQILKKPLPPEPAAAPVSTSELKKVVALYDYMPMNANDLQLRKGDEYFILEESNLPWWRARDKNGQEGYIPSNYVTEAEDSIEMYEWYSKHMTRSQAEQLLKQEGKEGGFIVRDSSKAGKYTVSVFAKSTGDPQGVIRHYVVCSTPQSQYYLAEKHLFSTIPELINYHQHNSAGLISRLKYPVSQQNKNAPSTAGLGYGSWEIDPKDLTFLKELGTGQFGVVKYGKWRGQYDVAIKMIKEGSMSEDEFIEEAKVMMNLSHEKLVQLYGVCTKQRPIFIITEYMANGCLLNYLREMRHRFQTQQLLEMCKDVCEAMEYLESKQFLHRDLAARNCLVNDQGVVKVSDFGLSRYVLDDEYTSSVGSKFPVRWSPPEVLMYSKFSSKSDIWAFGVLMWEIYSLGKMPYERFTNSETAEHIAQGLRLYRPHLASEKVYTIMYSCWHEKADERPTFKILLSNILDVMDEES

Row | SMILES | IC50 (L02) [µM] | IC50 (HEK293) [µM] | IC50 (THP-1) [µM] | solubility [1] [µg/mL] | IC50 [2] [µM] | Activity (Mus musculus) | IC50 [3] [µM]
1 | C=CS(=O)(=O)N1CCC(Cn2cc(-c3ccc(Oc4ccccc4)cc3)c3c(N)ncnc32)CC1 | 3.2 | 2.7 | 3.3 | < 10 |  |  | 
2 | C=CC(=O)N1CCCC(Cn2cc(-c3ccc(Oc4ccccc4)cc3)c3c(N)ncnc32)C1 (single isomer, unassigned; form 1) | 11.7 | 2.9 | 8.8 | < 10 |  |  | 
3 | C=CS(=O)(=O)N1CCC(Cn2cc(-c3ccc4c(c3)OCO4)c3c(N)ncnc32)CC1 | 3.2 | 2.5 | 3.7 | 100 (≈ 226 µM) |  |  | 
4 | C=CC(=O)N1CCC(Cn2nc(-c3ccc(Oc4ccccc4)cc3)c3c(N)ncnc32)CC1 | 10.9 | 11.2 | 15.7 | < 10 |  |  | 
5 | C=CS(=O)(=O)N1CCC(Cn2nc(-c3ccc(Oc4ccccc4)cc3)c3c(N)ncnc32)CC1 | 19.1 | 1.6 | 18.3 | < 10 |  |  | 
6 | C=CC(=O)N1CCCC(Cn2cc(-c3ccc4c(c3)OCO4)c3c(N)ncnc32)C1 (single isomer, unassigned; form 2) |  |  |  | 100 (≈ 247 µM) |  |  | 
7 | C=CC(=O)N1CCC(Cn2cc(-c3ccc(Oc4ccccc4)cc3)c3c(N)ncnc32)CC1 | 16 | 13.3 | 16.7 | < 10 | 0.00609 |  | 
8 | C=CC(=O)N1CCC(Cn2cc(-c3ccc(OCc4ccccc4)cc3)c3c(N)ncnc32)CC1 |  |  |  | < 10 | 0.077 |  | 
9 | C=CC(=O)N1CCC(CCn2cc(-c3ccc4c(c3)OCO4)c3c(N)ncnc32)CC1 |  |  |  | < 100 |  |  | 
10 | C=CC(=O)N1CCCC(Cn2cc(-c3ccc(Oc4ccccc4)cc3)c3c(N)ncnc32)C1 (single isomer, unassigned; form 2) | 14.2 | 1.3 | 10.7 | < 10 |  |  | 
11 | C=CS(=O)(=O)N1CCC(Cn2nc(-c3ccc4c(c3)OCO4)c3c(N)ncnc32)CC1 | 10.1 | 2.8 | 14.4 | 100 (≈ 226 µM) |  |  | 
12 | CN(C)C/C=C/C(=O)N1CCC(Cn2cc(-c3ccc4c(c3)OCO4)c3c(N)ncnc32)CC1 |  |  |  | < 100 |  |  | 
13 | CN(C)C/C=C/C(=O)N1CCC(Cn2cc(-c3ccc(Oc4ccccc4)cc3)c3c(N)ncnc32)CC1 | 6.6 | 4.8 | 3.2 | < 10 |  |  | 
14 | C=CC(=O)N1CCCC(Cn2cc(-c3ccc4c(c3)OCO4)c3c(N)ncnc32)C1 (single isomer, unassigned; form 1) |  |  |  | 100 (≈ 247 µM) |  |  | 
15 | C=CC(=O)N1CCC[C@@H](n2nc(-c3ccc(Oc4ccccc4)cc3)c3c(N)ncnc32)C1 [IBRUTINIB] | 17.4 | 19.3 | 20.1 | < 10 |  | Active | > 10
16 | C=CC(=O)N1CCC(CCn2cc(-c3ccc(Oc4ccccc4)cc3)c3c(N)ncnc32)CC1 | 15.2 | 10.2 | 18.9 | < 10 |  |  | 
17 | C=CC(=O)N1CCC(Cn2nc(-c3ccc4c(c3)OCO4)c3c(N)ncnc32)CC1 |  |  |  | 100 (≈ 246 µM) |  |  | 
